Laboratory results reported in ChEMBL document CHEMBL1201862, “PubChem BioAssay data set” (2004).
Several values for one entry are separate records, joined by “and”; a condition that tells them apart may be missing. Equal entries are not always repeated.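 Where inhibition never reached the appropriate level, the endpoint shown equals the highest concentration tested. Otherwise, values were interpolated linearly from a five-concentration, 48-hour dose response in 96-well plates. At the GI50, growth is halved.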 Activity calls are given as the source filed them. No stated cut-off is given here; in the data, active = GI50 up to about 1.1 µM and inactive = higher.

Columns and labels:
Assay in all cases: NCI anticancer screen, dose series, 48 h
A498 = system: A498
A549 = system: A549
BT-549 = system: BT-549
Malme-3M = system: Malme-3M
NCI-H226 = system: NCI-H226
NCI-H460 = system: NCI-H460
NCI-H522 = system: NCI-H522
OVCAR-5 = system: OVCAR-5
OVCAR-8 = system: OVCAR-8
RXF 393 = system: RXF 393
SF-295 = system: SF-295
SNB-19 = system: SNB-19
SR = system: SR
SW-620 = system: SW-620
U-251 = system: U-251
786-0 = system: 786-0
ACHN = system: ACHN
CAKI-1 = system: CAKI-1
CCRF-CEM = system: CCRF-CEM
COLO 205 = system: COLO 205
DU-145 = system: DU-145
EKVX = system: EKVX
HCC 2998 = system: HCC 2998
HCT-116 = system: HCT-116
HCT-15 = system: HCT-15
HOP-62 = system: HOP-62
HOP-92 = system: HOP-92
K562 = system: K562
KM12 = system: KM12
LOX IMVI = system: LOX IMVI
M14 = system: M14
MCF7 = system: MCF7
MDA-MB-231 = system: MDA-MB-231
MDA-MB-435 = system: MDA-MB-435
MOLT-4 = system: MOLT-4
NCI-H23 = system: NCI-H23
NCI/ADR-RES = system: NCI/ADR-RES
OVCAR-3 = system: OVCAR-3
OVCAR-4 = system: OVCAR-4
PC-3 = system: PC-3
RPMI-8226 = system: RPMI-8226
SF-268 = system: SF-268
SK-MEL-28 = system: SK-MEL-28
SK-MEL-2 = system: SK-MEL-2
SK-MEL-5 = system: SK-MEL-5
SK-OV-3 = system: SK-OV-3
SNB-75 = system: SNB-75
T47D = system: T47D
TK-10 = system: TK-10
UACC-257 = system: UACC-257
UACC-62 = system: UACC-62
UO-31 = system: UO-31

`CCOC(=O)c1c(-c2ccc(OC)c(O)c2)c(C#N)c(=S)n(C2OC(COC(C)=O)C(OC(C)=O)C(OC(C)=O)C2OC(C)=O)c1-c1ccccc1` (stereo not drawn) was tested. Which GI50 (A498) did it give?
Its GI50 is > 100 µM (inactive).

What about the GI50 (A549) of the same compound?
The GI50 was 51.9 µM (inactive).

And the GI50 (BT-549)?
The GI50 was 28.8 µM (inactive).

What about the GI50 (Malme-3M) of the same compound?
The GI50 was 32.4 µM (inactive).

What about the GI50 (NCI-H226) of the same compound?
The GI50 was > 100 µM (inactive).

What about the GI50 (NCI-H460) of the same compound?
Its GI50 is 67.1 µM (inactive) and 34 µM (inactive).

And the GI50 (NCI-H522)?
Its GI50 is 21.4 µM (inactive).

And the GI50 (OVCAR-5)?
Its GI50 is > 100 µM (inactive).

What about the GI50 (OVCAR-8) of the same compound?
The GI50 was > 100 µM (inactive).

And the GI50 (RXF 393)?
The GI50 was 50.1 µM (inactive).

And the GI50 (SF-295)?
Its GI50 is 52.8 µM (inactive).

What about the GI50 (SNB-19) of the same compound?
The GI50 was > 100 µM (inactive) and 83.2 µM (inactive).

And the GI50 (SR)?
The GI50 was > 100 µM (inactive) and 60.3 µM (inactive).

And the GI50 (SW-620)?
The GI50 was 59.7 µM (inactive).

And the GI50 (U-251)?
The GI50 was 90.4 µM (inactive).

`Cc1ccc(C2c3c(n(C)c(=O)n(C)c3=O)OC(N(C)C)(N(C)C)C2(F)F)cc1` (stereo not drawn) was tested. Which GI50 (786-0) did it give?
The GI50 was > 100 µM (inactive).

What about the GI50 (A498) of the same compound?
Its GI50 is > 100 µM (inactive).

And the GI50 (A549)?
Its GI50 is > 100 µM (inactive).

What about the GI50 (ACHN) of the same compound?
The GI50 was > 100 µM (inactive).

And the GI50 (BT-549)?
The GI50 was > 100 µM (inactive).

And the GI50 (CAKI-1)?
The GI50 was > 100 µM (inactive).

What about the GI50 (CCRF-CEM) of the same compound?
The GI50 was > 100 µM (inactive).

And the GI50 (COLO 205)?
The GI50 was > 100 µM (inactive).

And the GI50 (DU-145)?
The GI50 was > 100 µM (inactive).

What about the GI50 (EKVX) of the same compound?
Its GI50 is > 100 µM (inactive).

And the GI50 (HCC 2998)?
Its GI50 is > 100 µM (inactive).

What about the GI50 (HCT-116) of the same compound?
The GI50 was > 100 µM (inactive).

And the GI50 (HCT-15)?
The GI50 was greater than 100 µM.

What about the GI50 (HOP-62) of the same compound?
The GI50 was > 100 µM (inactive).

What about the GI50 (HOP-92) of the same compound?
The GI50 was > 100 µM (inactive).

And the GI50 (K562)?
The GI50 was > 100 µM (inactive).

And the GI50 (KM12)?
Its GI50 is > 100 µM (inactive).

And the GI50 (LOX IMVI)?
The GI50 was > 100 µM (inactive).

And the GI50 (M14)?
The GI50 was > 100 µM (inactive).

And the GI50 (MCF7)?
Its GI50 is > 100 µM (inactive).

What about the GI50 (MDA-MB-231) of the same compound?
Its GI50 is > 100 µM (inactive).

What about the GI50 (MDA-MB-435) of the same compound?
Its GI50 is > 100 µM (inactive).

What about the GI50 (MOLT-4) of the same compound?
The GI50 was > 100 µM (inactive).

What about the GI50 (NCI-H226) of the same compound?
The GI50 was > 100 µM (inactive).

What about the GI50 (NCI-H23) of the same compound?
Its GI50 is > 100 µM (inactive).

What about the GI50 (NCI-H460) of the same compound?
Its GI50 is > 100 µM (inactive).

What about the GI50 (NCI/ADR-RES) of the same compound?
The GI50 was > 100 µM (inactive).

What about the GI50 (OVCAR-3) of the same compound?
Its GI50 is > 100 µM (inactive).

What about the GI50 (OVCAR-4) of the same compound?
The GI50 was 51.4 µM (inactive).

And the GI50 (OVCAR-5)?
The GI50 was > 100 µM (inactive).

What about the GI50 (PC-3) of the same compound?
The GI50 was > 100 µM (inactive).

And the GI50 (RPMI-8226)?
The GI50 was > 100 µM (inactive).

What about the GI50 (RXF 393) of the same compound?
Its GI50 is > 100 µM (inactive).

What about the GI50 (SF-268) of the same compound?
The GI50 was > 100 µM (inactive).

What about the GI50 (SF-295) of the same compound?
The GI50 was > 100 µM (inactive).

And the GI50 (SK-MEL-28)?
Its GI50 is > 100 µM (inactive).

And the GI50 (SK-MEL-2)?
The GI50 was > 100 µM (inactive).

What about the GI50 (SK-MEL-5) of the same compound?
Its GI50 is > 100 µM (inactive).

And the GI50 (SK-OV-3)?
The GI50 was > 100 µM (inactive).

What about the GI50 (SNB-19) of the same compound?
Its GI50 is > 100 µM (inactive).

And the GI50 (SNB-75)?
The GI50 was > 100 µM (inactive).

And the GI50 (SW-620)?
Its GI50 is > 100 µM (inactive).

What about the GI50 (T47D) of the same compound?
Its GI50 is > 100 µM (inactive).

And the GI50 (TK-10)?
Its GI50 is > 100 µM (inactive).

What about the GI50 (U-251) of the same compound?
Its GI50 is > 100 µM (inactive).

What about the GI50 (UACC-257) of the same compound?
Its GI50 is > 100 µM (inactive).

And the GI50 (UACC-62)?
The GI50 was > 100 µM (inactive).

What about the GI50 (UO-31) of the same compound?
Its GI50 is > 100 µM (inactive).
